# Measured values from article PMC9606729 (RSC Advances, 2022).
# Read-outs that look alike come from different tables or passages of the source.
# Assays:
# HeLa cells [1] = experiment: Annexin-V/FITC/PI assay by flow cytometry; assay type: cell-based, human; details: 5 μM
# Protocol: The mechanism of light-assisted cell death induced by the complexes was studied by annexin-V/FITC/PI assay using complexes 1 and 3 in 1% DMSO/DMEM.[44] ∼4 × 10^5 HeLa cells seeded in six-well plates were cultured for 24 h. The cells were then incubated with 3 (5 μM) for 4 h in the dark and then exposed to visible light (λ = 400–700 nm, light dose = 10 J cm^−2) in phenol red free media for 1 h. The corresponding dark control experiment was carried out. Cells were incubated for another 19 h and 20 h respectively for the light exposed and unexposed plates in DMEM/10% fetal bovine serum (FBS) buffer in the dark. The medium was discarded, cells were trypsinized and re-suspended in 140 μL Annexin V binding buffer (100 mM HEPES/NaOH, pH 7.4 containing 140 mM NaCl and 2.5 mM CaCl2). Annexin-V/FITC ([…]) and propidium iodide (PI; […]) were added to the cell suspensions, incubated for 5 min and readings were taken using a flow cytometer.
# [2] = Partition coefficient n-octanol/water, modified shake-flask method; assay type: physicochemical; details: average of three concentrations
# Protocol: A modified shake-flask method was used to determine the partition coefficients of the complexes 1–6 between n-octanol and water.[41] Briefly, 5 ml solution of a complex in octanol-saturated water was shaken with 5 ml of water-saturated n-octanol in a falcon tube for ∼30 min using a vortex. The biphasic mixture was centrifuged for ∼5 min at 4000 rpm and the layers were separated. The concentration of the complexes 1–6 in each layer was measured by UV-visible spectroscopy. The partition coefficients of 1–6 were determined at three different concentrations and averaged out.
# A549 cells [3] = experiment: MTT cell viability assay (photocytotoxicity), A549; assay type: cell-based, human; details: for PI (Phototoxic Index) A549: ratio between IC50 in the dark and visible light exposure
# Protocol: (§1) The photocytotoxicity of the complexes was assessed using MTT assay based on the ability of mitochondrial dehydrogenases in the viable cells to cleave the tetrazolium rings of MTT and forming dark blue membrane impermeable crystals of formazan that were measured at 570 nm giving an estimate of the number of viable cells.[40] Approximately, 1 × 10^4 cells of HeLa and A549 were plated in a 96-well culture plate in DMEM supplemented with 10% fetal bovine serum and cultured overnight. Different concentrations of the complexes were added to the cells, and incubation was continued for 4 h in dark. After incubation, the medium was replaced with 50 mM phosphate buffer, pH 7.4, containing 150 mM NaCl (PBS) and photo-irradiation was done for 1 h in visible light of 400–700 nm using Luzchem Photoreactor (Model LZC-1, Ontario, Canada; light fluence rate: 2.4 mW cm^−2; light dose = 10 J cm^−2). PBS was replaced with 10% DMEM after irradiation. Incubation was continued for a further period of 19 h in dark for light exposed cells and for 20 h in dark for light unexposed cells followed by addition of 25 μL of 4 mg mL^−1 of MTT to each well and incubated for an additional 3 h. The culture medium was discarded, and a 100 μL volume of DMSO was added to dissolve the formazan crystals. The absorbance at 570 nm was determined using an ELISA microplate reader (BioRad, Hercules, CA, USA). The cytotoxicity of the test compounds was measured as the percentage ratio of the absorbance of the treated cells over the untreated controls. The IC50 values were determined by nonlinear regression analysis (Graphpad Prism, version 7).
# HeLa cells [4] = experiment: MTT cell viability assay (photocytotoxicity), HeLa; assay type: cell-based, human; details: for PI (Phototoxic Index) HeLa: ratio between IC50 in the dark and visible light exposure
# Protocol: as §1
# HeLa cells [5] = experiment: Cellular uptake by flow cytometry; assay type: cell-based, human; details: 10 μM, 4 h in dark, fluorescence vs cells' auto fluorescence
# Protocol: Uptake of the complexes 1–3 in HeLa cells were studied by flow cytometric method reported in literature.[42] HeLa cells were treated with 1–3 (10 μM) and incubated for 4 h in dark. The cells were harvested by trypsinization and a suspension in PBS was prepared. The uptake of the green fluorescent complexes in HeLa cells were evaluated by flow cytometry.
# [6] = target: T1, human serum albumin (HSA) (Homo sapiens, UniProt P02768); experiment: Protein binding by tryptophan fluorescence quenching; details: fluorescence lifetime of HSA with 10 and 20 μM complex
# T1 construct: purchased Sigma (U.S.A.)
# T1 sequence (P02768 25-609): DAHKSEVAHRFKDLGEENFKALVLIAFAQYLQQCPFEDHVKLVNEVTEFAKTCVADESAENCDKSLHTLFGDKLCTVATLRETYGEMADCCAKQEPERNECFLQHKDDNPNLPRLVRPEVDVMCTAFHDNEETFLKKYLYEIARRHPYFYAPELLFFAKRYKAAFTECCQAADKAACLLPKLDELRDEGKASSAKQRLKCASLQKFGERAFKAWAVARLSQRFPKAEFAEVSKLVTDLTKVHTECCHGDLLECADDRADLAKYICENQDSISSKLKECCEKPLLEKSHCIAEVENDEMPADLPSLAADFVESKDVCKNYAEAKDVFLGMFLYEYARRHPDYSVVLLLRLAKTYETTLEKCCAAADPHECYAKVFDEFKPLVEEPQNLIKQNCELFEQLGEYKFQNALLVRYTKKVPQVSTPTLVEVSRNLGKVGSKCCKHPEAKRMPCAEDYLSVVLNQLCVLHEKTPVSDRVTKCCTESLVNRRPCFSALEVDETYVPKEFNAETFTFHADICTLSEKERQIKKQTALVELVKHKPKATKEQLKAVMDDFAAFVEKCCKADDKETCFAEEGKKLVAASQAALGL
# Protocol: The protein binding study was carried out by tryptophan fluorescence quenching experiments using human serum albumin (HSA, 2 μM) in Tris–HCl buffer (pH 7.2). Quenching of the emission intensity of tryptophan residue (Trp 214) of HSA at 320 nm (excitation wavelength at 280 nm) was monitored using complexes 1–6 as quenchers with increasing concentration.[38]I0/I vs. [complex] plots were constructed. Linear fit of the data using the equation I0/I = 1 + K[Q], where I0 and I are the emission intensity of HSA in the absence of quencher and emission intensity of HSA in the presence of the quencher of concentration [Q] gave the binding constant KHSA values using OriginPro 8. […] Average fluorescence lifetime of pure HSA (2 μM) was measured and compared with its fluorescence lifetime in presence of two different concentrations (10 and 20 μM) of complex 3 using a time-resolved fluorimeter.[39]
# HeLa cells [7] = experiment: DCFDA assay for detection of ROS; assay type: cell-based, human; details: 5 μM
# Protocol: The generation of cellular reactive oxygen species (ROS) was assessed using DCFDA assay.[43] Approximately ∼1 × 10^6 HeLa cells were incubated with complex 3 (5 μM) for 4 h which is followed by photo-irradiation (400–700 nm) for 1 h in PBS. The cells were then harvested by trypsinization and a single cell suspension in PBS was made. After that the cells were treated with DCFDA solution (10 μM, in DMSO) in dark at room temperature for 5 min. The distribution of DCFDA stained HeLa cells was determined by flow cytometry in the FL-1 channel.
# A549 cells [8] = details: curcumin, cited from earlier work
# HeLa cells [9] = details: curcumin, cited from earlier work
# [10] = 4 h treatment followed by 20 h incubation in dark, read-out: IC50 A549 Dark
# [11] = 4 h treatment in dark, visible light (400–700 nm, 10 J cm^−2) 1 h, then 19 h in dark, read-out: IC50 A549 Light
# [12] = 4 h treatment followed by 20 h incubation in dark, read-out: IC50 HeLa Dark
# [13] = 4 h treatment in dark, visible light (400–700 nm, 10 J cm^−2) 1 h, then 19 h in dark, read-out: IC50 HeLa Light
# [14] = visible light (400–700 nm, 10 J cm^−2)
structure (smiles),measurement,setting,value
"COc1cc(/C=C/C(=O)C=C([O-])/C=C/c2ccc(O)c(OC)c2)ccc1O.[Cu+2].[O-][Cl+3]([O-])([O-])[O-].c1cnc2c(c1)ccc1cccnc12 [Complex 1, [Cu(Cur)(phen)(ClO4)]]",induction of apoptosis (in words),"HeLa cells [1]; visible light (400–700 nm, 10 J cm^−2) vs dark","visible light assisted induction of apoptosis in HeLa cells, however not up to the extent of 3"
same,log Po/w,[2],−0.525
same,IC50,A549 cells [3]; [10],85.3 ± 5.4 µM
same,IC50,A549 cells [3]; [11],8.6 ± 0.8 µM
same,PI (Phototoxic Index) A549,A549 cells [3],9.9
same,IC50,HeLa cells [4]; [12],56.4 ± 3.5 µM
same,IC50,HeLa cells [4]; [13],6.8 ± 0.9 µM
same,PI (Phototoxic Index) HeLa,HeLa cells [4],8.3
"COc1cc(C=CC(=O)C=C([O-])C=Cc2ccc(O)c(OC)c2)ccc1O.[Cu+2].[O-][Cl+3]([O-])([O-])[O-].c1cnc2c(c1)c1nccnc1c1cccnc12 [Complex 2, [Cu(Cur)(dpq)(ClO4)]]",log Po/w,[2],0.345
same,IC50,A549 cells [3]; [10],65.6 ± 4.4 µM
same,IC50,A549 cells [3]; [11],5.7 ± 0.7 µM
same,PI (Phototoxic Index) A549,A549 cells [3],11.5
same,IC50,HeLa cells [4]; [12],61.9 ± 3.9 µM
same,IC50,HeLa cells [4]; [13],4.7 ± 0.8 µM
same,PI (Phototoxic Index) HeLa,HeLa cells [4],13.2
"COc1cc(/C=C/C(=O)C=C([O-])/C=C/c2ccc(O)c(OC)c2)ccc1O.[Cu+2].[O-][Cl+3]([O-])([O-])[O-].c1ccc2nc3c4cccnc4c4ncccc4c3nc2c1 [Complex 3, [Cu(Cur)(dppz)(ClO4)]]",population of cells in early apoptotic stage,HeLa cells [1]; in dark,~4%
same,population of cells in late apoptotic stage,HeLa cells [1]; in dark,~8%
same,population of cells in early apoptotic stage,HeLa cells [1]; [14],~50%
same,population of cells in late apoptotic stage,HeLa cells [1]; [14],~15%
same,log Po/w,[2],0.945
same,uptake in HeLa cells,HeLa cells [5],highest uptake
same,IC50,A549 cells [3]; [10],64.9 ± 4.3 µM
same,IC50,A549 cells [3]; [11],4.3 ± 0.4 µM
same,PI (Phototoxic Index) A549,A549 cells [3],15.1
same,IC50,HeLa cells [4]; [12],58.9 ± 3.7 µM
same,IC50,HeLa cells [4]; [13],3.7 ± 0.5 µM
same,PI (Phototoxic Index) HeLa,HeLa cells [4],15.9
same,HSA fluorescence quenching mechanism,[6],static in nature
same,ROS generation (DCF emission),"HeLa cells [7]; 4 h, photo-irradiation (400–700 nm) 1 h",significant increase in emission by DCF
same,ROS generation (DCF emission),HeLa cells [7]; compound treated cells kept in dark,did not show any significant ROS formation
"CC(=O)C=C(C)[O-].[Cu+2].[O-][Cl+3]([O-])([O-])[O-].c1cnc2c(c1)ccc1cccnc12 [Complex 4, [Cu(acac)(phen)(ClO4)]]",IC50,A549 cells [3]; [10],> 100 µM
same,IC50,A549 cells [3]; [11],48.8 ± 4.2 µM
same,IC50,HeLa cells [4]; [12],> 100 µM
same,IC50,HeLa cells [4]; [13],41 ± 3.8 µM
"CC(=O)C=C(C)[O-].[Cu+2].[O-][Cl+3]([O-])([O-])[O-].c1cnc2c(c1)c1nccnc1c1cccnc12 [Complex 5, [Cu(acac)(dpq)(ClO4)]]",log Po/w,[2],−0.180
same,IC50,A549 cells [3]; [10],> 100 µM
same,IC50,A549 cells [3]; [11],45.1 ± 3.5 µM
same,PI (Phototoxic Index) A549,A549 cells [3],>2.2
same,IC50,HeLa cells [4]; [12],> 100 µM
same,IC50,HeLa cells [4]; [13],46.8 ± 3.9 µM
same,PI (Phototoxic Index) HeLa,HeLa cells [4],>2.1
CC(=O)C=C(C)[O-].[Cu+2].[O-][Cl+3]([O-])([O-])[O-].c1ccc2nc3c4cccnc4c4ncccc4c3nc2c1 [Complex 6],IC50,A549 cells [3]; [10],> 100 µM
same,IC50,A549 cells [3]; [11],39.8 ± 3.3 µM
same,PI (Phototoxic Index) A549,A549 cells [3],>2.5
same,IC50,HeLa cells [4]; [12],> 100 µM
same,IC50,HeLa cells [4]; [13],36.9 ± 2.8 µM
same,PI (Phototoxic Index) HeLa,HeLa cells [4],>2.7
"COc1cc(/C=C/C(=O)CC(=O)/C=C/c2ccc(O)c(OC)c2)ccc1O [Curcumin, (1E,6E)-1,7-bis(4-hydroxy-3-methoxyphenyl)-1,6-heptadiene-3,5-dione]",IC50,A549 cells [8]; read-out: IC50 A549 Dark,61.4 ± 0.4 µM
same,IC50,A549 cells [8]; read-out: IC50 A549 Light,19 ± 0.1 µM
same,IC50,HeLa cells [9]; read-out: IC50 HeLa Dark,85.4 ± 0.6 µM
same,IC50,HeLa cells [9]; read-out: IC50 HeLa Light,8.2 ± 0.2 µM
